# Reference: publication PMC7567334 (Environmental Health Perspectives, 2020)
# Entries after “also recorded” stand apart in the source; their conditions may differ.
# Assays:
# human (h) ERα = target: T1, human (h) ERα (Homo sapiens, UniProt P03372); details: test for false positivity
# T1 sequence (P03372 1-595): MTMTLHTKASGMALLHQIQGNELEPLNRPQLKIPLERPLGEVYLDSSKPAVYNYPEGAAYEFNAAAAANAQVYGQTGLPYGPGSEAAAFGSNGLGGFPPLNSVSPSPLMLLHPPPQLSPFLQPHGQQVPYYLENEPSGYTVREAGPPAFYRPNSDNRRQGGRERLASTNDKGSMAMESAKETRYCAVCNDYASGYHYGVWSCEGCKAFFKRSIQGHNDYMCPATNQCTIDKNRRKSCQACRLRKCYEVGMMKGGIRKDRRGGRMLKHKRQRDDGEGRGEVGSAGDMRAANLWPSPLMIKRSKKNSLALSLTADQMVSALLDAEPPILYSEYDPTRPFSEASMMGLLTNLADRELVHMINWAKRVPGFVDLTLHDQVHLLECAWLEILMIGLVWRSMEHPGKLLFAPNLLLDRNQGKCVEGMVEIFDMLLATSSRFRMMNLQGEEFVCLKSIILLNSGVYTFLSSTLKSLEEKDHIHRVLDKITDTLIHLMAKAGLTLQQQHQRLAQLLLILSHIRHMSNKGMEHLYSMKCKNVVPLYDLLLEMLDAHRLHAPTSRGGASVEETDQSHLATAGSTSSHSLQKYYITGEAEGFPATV
# [1] = ref Schebb et al. 2012, cited from earlier work
# [2] = test system: fathead minnow (Pimephales promelas); details: exposure to 10 μg/L; ref Ankley et al. 2010; cited from earlier work
# GR = target: T2, GR (Homo sapiens, UniProt P04150); experiment: PolarScreen GR Competitor binding affinity assay; design: purchased Invitrogen; details: in words; tested up to 10 μM
# T2 sequence (P04150 1-777): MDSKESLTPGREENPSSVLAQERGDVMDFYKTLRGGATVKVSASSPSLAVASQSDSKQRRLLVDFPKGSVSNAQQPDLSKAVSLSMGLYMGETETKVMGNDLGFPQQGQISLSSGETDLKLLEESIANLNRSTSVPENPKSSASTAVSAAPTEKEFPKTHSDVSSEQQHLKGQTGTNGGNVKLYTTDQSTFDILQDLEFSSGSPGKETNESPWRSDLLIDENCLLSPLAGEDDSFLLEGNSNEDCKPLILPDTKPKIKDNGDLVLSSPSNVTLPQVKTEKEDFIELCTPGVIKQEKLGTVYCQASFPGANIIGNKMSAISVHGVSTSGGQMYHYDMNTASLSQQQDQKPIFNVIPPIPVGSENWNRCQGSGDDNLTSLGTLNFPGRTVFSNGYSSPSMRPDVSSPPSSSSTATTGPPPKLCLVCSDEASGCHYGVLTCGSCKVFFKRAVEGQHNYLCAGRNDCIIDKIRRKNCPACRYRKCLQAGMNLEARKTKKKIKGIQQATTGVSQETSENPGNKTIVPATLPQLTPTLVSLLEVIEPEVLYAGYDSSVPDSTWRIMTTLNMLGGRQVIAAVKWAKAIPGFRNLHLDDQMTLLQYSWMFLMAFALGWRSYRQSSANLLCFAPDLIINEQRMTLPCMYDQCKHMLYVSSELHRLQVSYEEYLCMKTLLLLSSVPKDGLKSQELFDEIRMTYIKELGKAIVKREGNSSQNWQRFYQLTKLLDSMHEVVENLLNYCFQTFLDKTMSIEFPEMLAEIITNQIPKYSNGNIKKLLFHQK
smiles,measurement,setting,value
"O=C(Nc1ccc(Cl)cc1)Nc1ccc(Cl)c(Cl)c1 [Triclocarban, 1-(4-Chlorophenyl)-3-(3,4-dichlorophenyl) urea]",estrogenic effect in presence of ER antagonist 10 μM hydroxytamoxifen,human (h) ERα,blocked all
same,time of plasma peak after exposure,[1],≤ 48 h
same,peak plasma concentration,"[1]; six healthy volunteers, triclocarban-containing soaps",23 to 530 nM
same,effect in fathead minnow,[2],increased masculinization
same,"binding affinity assay on isolated GR, result",GR,did not show binding; also recorded: negative
